ChEMBL document CHEMBL6121066, “Structure-Activity Relationship Studies of DNA Methyltransferase 1 Monovalent Degraders” (J Med Chem, 2025)
Calls of active or inactive are those of the source. No cut-off for these calls is given here.

Assays:
NCI-H1299 [1] = assay: Induction of molecular glue effect mediated DNMT1 degradation in human NCI-H1299 cells assessed as reduction in DNMT1 protein level at 100 nM preincubated with MG132 for 2 hrs followed by compound addition and measured after 24 hrs by Western blot analysis; format: cell-based
HCT-116 [2] = assay: Induction of molecular glue effect mediated DNMT3A degradation in human HCT-116 cells assessed as reduction in DNMT3A protein level at 500 nM incubated for 24 hrs by Western blot analysis; format: cell-based
HCT-116 [3] = assay: Induction of molecular glue effect mediated DNMT1 degradation in human HCT-116 cells assessed as reduction in DNMT1 protein level at 100 nM preincubated with TRAF6 inhibitor C25-140 for 2 hrs followed by compound addition and measured after 24 hrs by Western blot analysis; format: cell-based
NCI-H1299 [4] = assay: Effect on DNMT1 mRNA level in human NCI-H1299 cells at 500 nM incubated for 24 hrs by RT-qPCR analysis; format: functional, cell-based
HCT-116 [5] = assay: Induction of molecular glue effect mediated DNMT1 degradation in human HCT-116 cells transfected with Smurf2 siRNA assessed as reduction in DNMT1 protein level at 100 nM measured after 24 hrs by Western blot analysis; format: cell-based
HCT-116 [6] = assay: Induction of molecular glue effect mediated DNMT1 degradation in human HCT-116 cells assessed as reduction in DNMT1 protein level at 500 nM measured after 24 hrs by Western blot analysis relative to control; format: cell-based; design: scale not given: the % may be the effect or the level left
HCT-116 [7] = assay: Induction of molecular glue effect mediated DNMT1 degradation in human HCT-116 cells assessed as reduction in DNMT1 protein level at 500 nM by Western blot analysis; format: cell-based; conditions: time 2-24 hrs
MDA-MB-468 = assay: Induction of molecular glue effect mediated DNMT1 degradation in human MDA-MB-468 cells assessed as reduction in DNMT1 protein level at 100 nM preincubated with MLN4924 for 2 hrs followed by compound addition and measured after 24 hrs by Western blot analysis; format: cell-based
HCT-116 [8] = assay: Induction of molecular glue effect mediated DNMT1 degradation in human HCT-116 cells assessed as reduction in DNMT1 protein level by measuring maximal efficacy at 1 uM incubated for 24 hrs by Western blot analysis relative to control; format: cell-based
HCT-116 [9] = assay: Induction of molecular glue effect mediated DNMT1 degradation in human HCT-116 cells assessed as reduction in DNMT1 protein level at 100 nM preincubated with heclin for 2 hrs followed by compound addition and measured after 24 hrs by Western blot analysis; format: cell-based
HCT-116 [10] = assay: Induction of molecular glue effect mediated DNMT1 degradation in human HCT-116 cells assessed as reduction in DNMT1 protein level at 100 nM preincubated with MLN4924 for 2 hrs followed by compound addition and measured after 24 hrs by Western blot analysis; format: cell-based
[11] = target: T1, Histone-lysine N-methyltransferase EHMT2 (Homo sapiens) (UniProt Q96KQ7); assay: Inhibition of human G9a using histone H3 and SAM as substrate at 1 uM by radioisotope-based MT HotSpot assay relative to control
T1 sequence (whole entry): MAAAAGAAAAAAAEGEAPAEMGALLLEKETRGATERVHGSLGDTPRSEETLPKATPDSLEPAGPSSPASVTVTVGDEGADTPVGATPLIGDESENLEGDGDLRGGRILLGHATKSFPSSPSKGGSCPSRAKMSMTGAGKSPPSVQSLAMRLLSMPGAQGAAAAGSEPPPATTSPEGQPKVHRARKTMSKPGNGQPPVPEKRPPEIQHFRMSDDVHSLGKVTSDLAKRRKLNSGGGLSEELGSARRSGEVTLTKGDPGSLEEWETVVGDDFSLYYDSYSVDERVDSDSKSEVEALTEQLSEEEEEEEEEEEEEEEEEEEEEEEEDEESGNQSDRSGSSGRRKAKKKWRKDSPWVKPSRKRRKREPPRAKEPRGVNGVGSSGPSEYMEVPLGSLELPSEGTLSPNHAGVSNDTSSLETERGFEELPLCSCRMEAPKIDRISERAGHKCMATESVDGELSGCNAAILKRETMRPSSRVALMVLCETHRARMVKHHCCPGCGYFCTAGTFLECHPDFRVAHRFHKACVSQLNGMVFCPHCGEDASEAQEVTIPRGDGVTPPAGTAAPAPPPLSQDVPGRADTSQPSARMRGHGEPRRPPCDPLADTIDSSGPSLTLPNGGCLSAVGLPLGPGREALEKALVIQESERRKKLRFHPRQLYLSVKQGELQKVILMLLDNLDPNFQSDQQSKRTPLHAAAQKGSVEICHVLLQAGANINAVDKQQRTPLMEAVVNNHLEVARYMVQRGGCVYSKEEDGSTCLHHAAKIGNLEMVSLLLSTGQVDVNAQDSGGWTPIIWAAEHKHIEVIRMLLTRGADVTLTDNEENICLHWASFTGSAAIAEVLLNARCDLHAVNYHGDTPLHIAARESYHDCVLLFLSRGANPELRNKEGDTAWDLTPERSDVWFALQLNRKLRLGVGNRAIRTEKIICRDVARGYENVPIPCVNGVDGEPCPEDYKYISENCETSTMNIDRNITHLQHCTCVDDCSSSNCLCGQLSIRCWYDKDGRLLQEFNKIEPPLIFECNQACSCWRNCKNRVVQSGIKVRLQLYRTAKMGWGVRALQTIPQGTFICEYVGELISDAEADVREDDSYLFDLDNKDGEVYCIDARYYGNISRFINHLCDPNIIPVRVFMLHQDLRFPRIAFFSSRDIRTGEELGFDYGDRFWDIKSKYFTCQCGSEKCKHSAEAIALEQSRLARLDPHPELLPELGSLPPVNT

HCT-116 [12] = assay: (§1) Induction of molecular glue effect mediated DNMT1 degradation in human HCT-116 cells assessed as reduction in DNMT1 protein level incubated for 24 hrs by Western blot analysis; format: cell-based
[13] = as §1; format: cell-based; conditions: HCT-116, 24 h
[14] = Induction of molecular glue effect mediated DNMT1 degradation in human MDA-MB-468 cells assessed as reduction in DNMT1 protein level incubated for 24 hrs by Western blot analysis; format: cell-based; conditions: MDA-MB-468, 24 h

inhibition [11]: < 20%
DC50 [13]: 35 nM
DC50 [14]: 254 nM
Structure (SMILES): CCc1c(C#N)c(SC(C(N)=O)c2ccccc2)nc(N(C)CC(=O)NC)c1C#N (stereo not given)
Activity (NCI-H1299 [1]): inactive
Activity (HCT-116 [2]): inactive
Activity (HCT-116 [3]): Active
Activity (NCI-H1299 [4]): inactive
Activity (HCT-116 [5]): Active
Activity (HCT-116 [6]): 100%
Activity (HCT-116 [7]): Time-dependent-effect
Activity (MDA-MB-468): Active
Emax (HCT-116 [8]): 89%
Activity (HCT-116 [9]): Not active; Partial Rescue Of Degradation Observed
Activity (HCT-116 [10]): Active
Activity (HCT-116 [12]): Dose-dependent-effect
